# Data published in patent US12509452B2, “Substituted-isoxazoline-containing aromatic compound, preparation method therefor, herbicidal composition and use thereof” (QINGDAO KINGAGROOT CHEMICAL COMPOUND CO., LTD., priority 2019, dated 2025).
# Tests used:
# Test in all cases: weeding effect in post-emergence stage
# Assay type in all cases: in vivo
# Conditions in all cases: dose 15 g a.i./ha
# Alopecurus japonicus = test system: Alopecurus japonicus
# In short: (§1)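 Post-emergence greenhouse pot test: 2-3 leaf weeds sprayed (acetone/Tween 80 formulation plus 1.5 liter/ha methyl oleate EC) at 500, 250, 125, 60, 15, 7.5 g a.i./ha; fresh weight control rate read 3 weeks later, graded 0 (<5%) to 5 (>85%); n=3 averages.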
# Beckmannia syzigachne = test system: Beckmannia syzigachne
# In short: as §1
# Conyza japonica = test system: Conyza japonica
# In short: as §1
# Rorippa indica = test system: Rorippa indica
# In short: as §1
SMILES,"weeding effect in post-emergence stage, Alopecurus japonicus (activity level) (Alopecurus japonicus)","weeding effect in post-emergence stage, Beckmannia syzigachne (activity level) (Beckmannia syzigachne)","weeding effect in post-emergence stage, Conyza japonica (activity level) (Conyza japonica)","weeding effect in post-emergence stage, Rorippa indica (activity level) (Rorippa indica)"
CC#CCOC(=O)C1(C)CC(c2cc(-n3c(=O)n(C)c(=S)n(C)c3=O)c(F)cc2Cl)=NO1 (stereo not drawn) [Compound 1-80],5 (Level 5: growth control rate is above 85%),5 (Level 5: growth control rate is above 85%),5 (Level 5: growth control rate is above 85%),5 (Level 5: growth control rate is above 85%)
C#CCCOC(=O)C1(C)CC(c2cc(-n3c(=O)n(C)c(=S)n(C)c3=O)c(F)cc2Cl)=NO1 (stereo not drawn) [Compound 1-81],5 (Level 5: growth control rate is above 85%),5 (Level 5: growth control rate is above 85%),5 (Level 5: growth control rate is above 85%),5 (Level 5: growth control rate is above 85%)
C#CC(C)OC(=O)C1(C)CC(c2cc(-n3c(=O)n(C)c(=S)n(C)c3=O)c(F)cc2Cl)=NO1 (stereo not drawn) [Compound 1-82],5 (Level 5: growth control rate is above 85%),5 (Level 5: growth control rate is above 85%),5 (Level 5: growth control rate is above 85%),5 (Level 5: growth control rate is above 85%)
Cn1c(=S)n(C)c(=O)n(-c2cc(C3=NOC(C)(C(=O)OC4CC4)C3)c(Cl)cc2F)c1=O (stereo not drawn) [Compound 1-83],5 (Level 5: growth control rate is above 85%),5 (Level 5: growth control rate is above 85%),5 (Level 5: growth control rate is above 85%),5 (Level 5: growth control rate is above 85%)
Cn1c(=S)n(C)c(=O)n(-c2cc(C3=NOC(C)(C(=O)OCC4CC4)C3)c(Cl)cc2F)c1=O (stereo not drawn) [Compound 1-84],5 (Level 5: growth control rate is above 85%),5 (Level 5: growth control rate is above 85%),5 (Level 5: growth control rate is above 85%),5 (Level 5: growth control rate is above 85%)
Cn1c(=S)n(C)c(=O)n(-c2cc(C3=NOC(C)(C(=O)OCC(F)F)C3)c(Cl)cc2F)c1=O (stereo not drawn) [Compound 1-86],5 (Level 5: growth control rate is above 85%),5 (Level 5: growth control rate is above 85%),5 (Level 5: growth control rate is above 85%),5 (Level 5: growth control rate is above 85%)
Cn1c(=S)n(C)c(=O)n(-c2cc(C3=NOC(C)(C(=O)OCC(F)(F)F)C3)c(Cl)cc2F)c1=O (stereo not drawn) [Compound 1-87],5 (Level 5: growth control rate is above 85%),5 (Level 5: growth control rate is above 85%),5 (Level 5: growth control rate is above 85%),5 (Level 5: growth control rate is above 85%)
Cn1c(=S)n(C)c(=O)n(-c2cc(C3=NOC(C)(C(=O)OCCCF)C3)c(Cl)cc2F)c1=O (stereo not drawn) [Compound 1-88],5 (Level 5: growth control rate is above 85%),5 (Level 5: growth control rate is above 85%),5 (Level 5: growth control rate is above 85%),5 (Level 5: growth control rate is above 85%)
Cn1c(=S)n(C)c(=O)n(-c2cc(C3=NOC(C)(C(=O)OCC(C)(F)F)C3)c(Cl)cc2F)c1=O (stereo not drawn) [Compound 1-89],5 (Level 5: growth control rate is above 85%),5 (Level 5: growth control rate is above 85%),5 (Level 5: growth control rate is above 85%),5 (Level 5: growth control rate is above 85%)
Cn1c(=S)n(C)c(=O)n(-c2cc(C3=NOC(C)(C(=O)OCCC(F)(F)F)C3)c(Cl)cc2F)c1=O (stereo not drawn) [Compound 1-90],5 (Level 5: growth control rate is above 85%),5 (Level 5: growth control rate is above 85%),5 (Level 5: growth control rate is above 85%),5 (Level 5: growth control rate is above 85%)
Cn1c(=S)n(C)c(=O)n(-c2cc(C3=NOC(C)(C(=O)OCC=CCl)C3)c(Cl)cc2F)c1=O (stereo not drawn) [Compound 1-92],5 (Level 5: growth control rate is above 85%),5 (Level 5: growth control rate is above 85%),5 (Level 5: growth control rate is above 85%),5 (Level 5: growth control rate is above 85%)
CCOC(=O)CCC1(C)CC(c2cc(-n3c(=O)n(C)c(=S)n(C)c3=O)c(F)cc2Cl)=NO1 (stereo not drawn) [Compound 1-94],5 (Level 5: growth control rate is above 85%),5 (Level 5: growth control rate is above 85%),5 (Level 5: growth control rate is above 85%),5 (Level 5: growth control rate is above 85%)
CCOC(=O)CCCC1(C)CC(c2cc(-n3c(=O)n(C)c(=S)n(C)c3=O)c(F)cc2Cl)=NO1 (stereo not drawn) [Compound 1-96],5 (Level 5: growth control rate is above 85%),5 (Level 5: growth control rate is above 85%),5 (Level 5: growth control rate is above 85%),5 (Level 5: growth control rate is above 85%)
CCOC(=O)C1ON=C(c2cc(-n3c(=O)n(C)c(=S)n(C)c3=O)c(F)cc2Cl)C1C (stereo not drawn) [Compound 1-98],5 (Level 5: growth control rate is above 85%),5 (Level 5: growth control rate is above 85%),5 (Level 5: growth control rate is above 85%),5 (Level 5: growth control rate is above 85%)
CCOC(=O)C1ON=C(c2cc(-n3c(=O)n(C)c(=S)n(C)c3=O)c(F)cc2Cl)C1C(F)(F)F (stereo not drawn) [Compound 1-99],5 (Level 5: growth control rate is above 85%),5 (Level 5: growth control rate is above 85%),5 (Level 5: growth control rate is above 85%),5 (Level 5: growth control rate is above 85%)
CCOC(=O)C1ON=C(c2cc(-n3c(=O)n(C)c(=S)n(C)c3=O)c(F)cc2Cl)C1C(=O)OCC (stereo not drawn) [Compound 1-100],5 (Level 5: growth control rate is above 85%),5 (Level 5: growth control rate is above 85%),5 (Level 5: growth control rate is above 85%),5 (Level 5: growth control rate is above 85%)
CCOC(=O)C1(C)ON=C(c2cc(-n3c(=O)n(C)c(=S)n(C)c3=O)c(F)cc2Cl)C1C (stereo not drawn) [Compound 1-101],5 (Level 5: growth control rate is above 85%),5 (Level 5: growth control rate is above 85%),5 (Level 5: growth control rate is above 85%),5 (Level 5: growth control rate is above 85%)
"CCOC(=O)C1(C)CC(c2cc(-n3c(=O)n(C)c(=S)n(C)c3=O)c(F)cc2Cl)=NO1 (stereo not drawn) [Control compound A, reference compound]",3 (Level 3: growth control rate is greater than or equal to 40% and less than 60%),2 (Level 2: growth control rate is greater than or equal to 20% and less than 40%),2 (Level 2: growth control rate is greater than or equal to 20% and less than 40%),2 (Level 2: growth control rate is greater than or equal to 20% and less than 40%)
